The values that follow come from ChEMBL document CHEMBL1201862, “PubChem BioAssay data set” (2004).

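Assay format: 96-well plates, 48-hour exposure. At the GI50, growth is halved.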 Activity calls are given as the source filed them. Rule as the data show it: active = GI50 up to about 1.1 µM and inactive = higher.

Test systems include OVCAR-8; NCI-H23; UO-31; IGROV-1; HCT-15; SK-OV-3; SNB-19; Malme-3M; OVCAR-3; HCT-116; OVCAR-4; COLO 205; SN12C; 786-0; NCI-H522; SR.
Common to all, as to test: NCI tumour cell line growth inhibition, 48 h

Regarding `O=[N+]([O-])c1ccc(/C=N/C23CC4CC(CC(C4)C2)C3)cc1`, the GI50 was > 100 µM (inactive) with OVCAR-8; > 100 µM (inactive) in the assay with NCI-H23; > 100 µM (inactive) with UO-31; > 100 µM (inactive) in the assay on IGROV-1; above 100 µM with HCT-15; > 100 µM (inactive) in the assay on SK-OV-3. Also, the GI50 in the assay on SNB-19, in the assay with Malme-3M, in the assay on OVCAR-3, with HCT-116, in the assay on OVCAR-4 and in the assay with COLO 205 was > 100 µM (inactive) each time. The GI50 in the assay on SN12C, in the assay with 786-0 and in the assay on NCI-H522 was > 100 µM (inactive) in each case.
With `O=C1c2c(c3c4ccccc4n(CC4CO4)c3c3[nH]c4ccccc4c23)C(=O)N1Cc1ccccc1` (stereo unspecified), the GI50 was 48.2 µM (inactive) with OVCAR-8; > 100 µM (inactive) in the assay on NCI-H23; > 100 µM (inactive) in the assay on UO-31; 67 µM (inactive) in the assay with IGROV-1; above 100 µM in the assay on HCT-15; > 100 µM (inactive) in the assay on SK-OV-3. Also, the GI50 with SNB-19 was > 100 µM (inactive); with Malme-3M, > 100 µM (inactive); in the assay with SR, > 100 µM (inactive); in the assay on OVCAR-3, > 100 µM (inactive); in the assay with HCT-116, > 100 µM (inactive); in the assay with OVCAR-4 it was 33 µM (inactive). The GI50 with SN12C was > 100 µM (inactive); in the assay on 786-0 it was > 100 µM (inactive); in the assay with NCI-H522 it was 25.4 µM (inactive).
For `CC1=NN(C(=O)Cc2ccccc2)C(=O)/C1=C\c1ccc([N+](=O)[O-])cc1`, the GI50 with OVCAR-8 was > 100 µM (inactive); in the assay with NCI-H23 it was > 100 µM (inactive); in the assay with UO-31, > 100 µM (inactive); with IGROV-1, > 100 µM (inactive); in the assay on HCT-15, above 100 µM; in the assay with SK-OV-3 it was > 100 µM (inactive). Moreover, the GI50 in the assay on SNB-19, with Malme-3M, in the assay on OVCAR-3, with HCT-116, in the assay on OVCAR-4 and in the assay with COLO 205 was > 100 µM (inactive) each time. Further, the GI50 in the assay on SN12C, with 786-0 and with NCI-H522 was > 100 µM (inactive) each time.
As to `N#CCN1C(=O)c2cc([N+](=O)[O-])cc3cc([N+](=O)[O-])cc(c23)C1=O`, the GI50 was 13.8 µM (inactive) with OVCAR-8; 15.9 µM (inactive) in the assay with NCI-H23; 13.8 µM (inactive) in the assay on UO-31; 13.2 µM (inactive) in the assay on IGROV-1; 6.71 µM with HCT-15; 39.6 µM (inactive) in the assay on SK-OV-3. Moreover, the GI50 was 24.2 µM (inactive) in the assay on SNB-19; 14.8 µM (inactive) with Malme-3M; 1.36 µM (inactive) with SR; 13.4 µM (inactive) in the assay with OVCAR-3; 7.18 µM (inactive) in the assay with HCT-116; 14.8 µM (inactive) with OVCAR-4. The GI50 with COLO 205 is 11.4 µM (inactive); with SN12C it was 13.1 µM (inactive); with 786-0 it was 11.8 µM (inactive).
Take `O=c1c2ccccc2nc(-c2cccc(Cl)c2)n1NCC1(O)OCC(O)C(O)C1O` (stereo unspecified): the GI50 in the assay with OVCAR-8 was > 100 µM (inactive); in the assay on NCI-H23, > 100 µM (inactive); with UO-31, > 100 µM (inactive); in the assay on HCT-15 it was above 100 µM; in the assay with SK-OV-3, > 100 µM (inactive); in the assay on SNB-19, > 100 µM (inactive). For the same molecule, the GI50 with Malme-3M is > 100 µM (inactive); in the assay on SR, 43.9 µM (inactive); with OVCAR-3, > 100 µM (inactive); with HCT-116, > 100 µM (inactive); in the assay on OVCAR-4, > 100 µM (inactive); with COLO 205, > 100 µM (inactive). For the same molecule, the results for the GI50 in the assay with SN12C, with 786-0 and in the assay on NCI-H522 were > 100 µM (inactive), > 100 µM (inactive) and 37.8 µM (inactive), respectively.
For the molecule `COC(=O)N/N=C(/CCC(=O)Nc1ccc(C)c(C)c1)CC(=O)C(C)(C)C`, the GI50 with OVCAR-8 is > 100 µM (inactive); with NCI-H23 it was > 100 µM (inactive); in the assay on UO-31 it was > 100 µM (inactive); in the assay on IGROV-1, > 100 µM (inactive); in the assay with HCT-15, above 100 µM; with SK-OV-3, > 100 µM (inactive). Further, the GI50 in the assay with SNB-19, with Malme-3M, in the assay on OVCAR-3, with OVCAR-4, in the assay with COLO 205 and in the assay with SN12C was > 100 µM (inactive) in each case. Besides, the GI50 in the assay with 786-0 and with NCI-H522 was > 100 µM (inactive) throughout.
As for `CCOC(=O)c1[nH]c(COC(C)=O)c(CCCOC(C)=O)c1CCCOC(C)=O`, the GI50 in the assay with OVCAR-8 is > 100 µM (inactive); in the assay on NCI-H23, > 100 µM (inactive); in the assay with IGROV-1, > 100 µM (inactive); in the assay on HCT-15 it was above 100 µM; in the assay on SK-OV-3, > 100 µM (inactive); with SNB-19, > 100 µM (inactive). For the same molecule, the GI50 with Malme-3M, in the assay on SR, in the assay with OVCAR-3, with HCT-116, in the assay on OVCAR-4 and in the assay on COLO 205 was > 100 µM (inactive) throughout. Further, the GI50 is > 100 µM (inactive) in the assay on SN12C, > 100 µM (inactive) with 786-0 and 23 µM (inactive) with NCI-H522.
Take `CC1=CC=C2C(C)(C)CC[C@@H]3OC(=O)[C@H]1[C@]23C`: the GI50 with OVCAR-8, in the assay with NCI-H23, with UO-31, with IGROV-1, in the assay on SK-OV-3 and with SNB-19 was > 100 µM (inactive) each time. Besides, the GI50 in the assay with Malme-3M, in the assay on SR, in the assay with OVCAR-3, in the assay with HCT-116, with OVCAR-4 and with COLO 205 was > 100 µM (inactive) each time. For the same molecule, the GI50 in the assay with SN12C, in the assay on 786-0 and with NCI-H522 was > 100 µM (inactive) throughout.
For the molecule `COc1ccc(Cc2c3cc(O)c([O-])cc3cc[n+]2C)cc1`, the GI50 in the assay on OVCAR-8 was 29 µM (inactive); in the assay with NCI-H23, 29.8 µM (inactive); in the assay on UO-31 it was 9.95 µM (inactive); in the assay on IGROV-1 it was 30.3 µM (inactive); in the assay with SK-OV-3 it was 41.5 µM (inactive); with SNB-19, 35 µM (inactive). Further, the GI50 in the assay on Malme-3M was 30.7 µM (inactive); in the assay on SR it was 5.86 µM (inactive); in the assay on OVCAR-3, 27.7 µM (inactive); in the assay with HCT-116, 19.4 µM (inactive); in the assay on OVCAR-4, 51.3 µM (inactive); in the assay with COLO 205, 39.1 µM (inactive). Further, the GI50 is 21 µM (inactive) with SN12C, 10.2 µM (inactive) in the assay on 786-0 and 23.3 µM (inactive) with NCI-H522.
Regarding `N#CC(C#N)=CSc1ccccc1`, the GI50 in the assay on OVCAR-8 was 17.8 µM (inactive); with NCI-H23 it was 57.4 µM (inactive); in the assay on UO-31, 13.3 µM (inactive); with IGROV-1, 17.3 µM (inactive); with HCT-15, 22.1 µM; in the assay with SK-OV-3 it was 59 µM (inactive). The GI50 in the assay with SNB-19 is 60 µM (inactive); in the assay with SR, 7.6 µM (inactive); with OVCAR-3, 34.4 µM (inactive); in the assay on HCT-116 it was 23 µM (inactive); in the assay on OVCAR-4 it was 47 µM (inactive); in the assay on COLO 205, 24.5 µM (inactive). The GI50 is 19.6 µM (inactive) with SN12C, 16.7 µM (inactive) in the assay with 786-0 and 11.8 µM (inactive) with NCI-H522.
On to `COc1ccc(/C=C/c2nnc(S)[nH]2)cc1OC`, for which the GI50 in the assay on OVCAR-8 was > 100 µM (inactive); in the assay with NCI-H23 it was > 100 µM (inactive); in the assay with UO-31, > 100 µM (inactive); with IGROV-1 it was > 100 µM (inactive); in the assay on HCT-15, above 100 µM; with SNB-19 it was > 100 µM (inactive). Further, the GI50 with Malme-3M, with SR, in the assay on OVCAR-3, with HCT-116, in the assay with OVCAR-4 and with SN12C was > 100 µM (inactive) in each case. For the same molecule, the GI50 in the assay with 786-0 is > 100 µM (inactive).
Take `COc1ccc(/C(C)=N/NC(N)=S)c(OC)c1`: the GI50 was > 100 µM (inactive) with OVCAR-8; > 100 µM (inactive) in the assay with NCI-H23; > 100 µM (inactive) in the assay on UO-31; > 100 µM (inactive) with IGROV-1; above 100 µM in the assay with HCT-15; > 100 µM (inactive) in the assay with SK-OV-3. Also, the GI50 in the assay on SNB-19, with Malme-3M, with SR, with OVCAR-3, in the assay on HCT-116 and in the assay on COLO 205 was > 100 µM (inactive) each time. Moreover, the GI50 in the assay on SN12C is > 100 µM (inactive); in the assay with 786-0, > 100 µM (inactive); in the assay on NCI-H522 it was 18.4 µM (inactive).
As to `Clc1ccccc1C1N2CCCCC2[C@@H]2c3[nH]c4ccccc4c3CCN12` (stereo partly specified), the GI50 in the assay with OVCAR-8 was 19.8 µM (inactive); with NCI-H23, 23.6 µM (inactive); with UO-31 it was 19.5 µM (inactive); with IGROV-1 it was 35.1 µM (inactive); with HCT-15 it was 16.2 µM; with SK-OV-3 it was 21.6 µM (inactive). The GI50 in the assay on SNB-19 is 23 µM (inactive); with Malme-3M, 4.84 µM (inactive); in the assay on OVCAR-3, 16.2 µM (inactive); in the assay on HCT-116, 18.5 µM (inactive); in the assay on OVCAR-4, 19.1 µM (inactive); in the assay on COLO 205 it was 19.3 µM (inactive). Further, the GI50 in the assay on SN12C was 16.7 µM (inactive); with 786-0, 21.2 µM (inactive).
As for `N=C1NC(=O)N2CC12` (stereo unspecified) [IMEXON], the GI50 in the assay on OVCAR-8 was > 100 µM (inactive); in the assay on NCI-H23 it was > 100 µM (inactive); in the assay on UO-31 it was > 100 µM (inactive); in the assay with IGROV-1, > 100 µM (inactive); with HCT-15, above 100 µM; in the assay on SK-OV-3, > 100 µM (inactive). Also, the GI50 in the assay on SNB-19 was > 100 µM (inactive); with Malme-3M, > 100 µM (inactive); in the assay with SR, 51.4 µM (inactive); in the assay on OVCAR-3 it was > 100 µM (inactive); in the assay with OVCAR-4, > 100 µM (inactive); in the assay on COLO 205, > 100 µM (inactive). Besides, the GI50 in the assay with SN12C, in the assay on 786-0 and in the assay on NCI-H522 was > 100 µM (inactive) in each case.
